Experimental data as given in BindingDB's records for doi:10.1038/nchembio.2195 (University of Texas M. D. Anderson Cancer Center, 2016).

Legend:
Alpha-enolase = Alpha-enolase (Homo sapiens, UniProt P06733); experiment: Enolase Enzymatic Assays; details: pH 7.4
Description: (§1) Enolase activity was measured by two different methods: a fluorometric NADH-linked assay or adirect spectrophotometric assay via formation of PEP. In the fluorescent assay,enolase activity was measured via NADH oxidation in a pyruvate kinase-dehydrogenase coupled assay. The assay is conducted in 10 mM KCl, 5 mM MgSO4, and 100 mM triethanolamine at pH 7.4, with 400 uM NADH and 2 mM ADP. 2-PGA, pyruvate kinase (PK) and lactate dehydrogenase(LDH) are provided in excess, with conversion of 2-PGA to PEP by enolase being rate limiting. PEP (with ADP) is substrate of PK; pyruvate formed by thisreaction is linked to NADH oxidation by LDH. Enolase activity is determinedby fluorescence measurement of oxidation of NADH by excitation at 340 nmand emission at 460 nm. The substrate concentration was 5 mM 2-PGA unlessotherwise indicated. Fluorescence was measured using an Omega FluorescencePlate Reader (BMG Labtech). Alternatively, enolase activity was measured directly by the appearance of PEP from 2-PGA via absorption at 240 nm. The assay medium was the same, except that all the auxiliary reagents (PK or LDH, NADH and ADP) are omitted. Both assays were conducted in a 96-well plate format, with the direct assay performed in UV-transmissible plates.

Gamma-enolase = Gamma-enolase (Homo sapiens, UniProt P09104); experiment: Enolase Enzymatic Assays; details: pH 7.4
Description: as §1

Sequence of Alpha-enolase (P06733 whole entry): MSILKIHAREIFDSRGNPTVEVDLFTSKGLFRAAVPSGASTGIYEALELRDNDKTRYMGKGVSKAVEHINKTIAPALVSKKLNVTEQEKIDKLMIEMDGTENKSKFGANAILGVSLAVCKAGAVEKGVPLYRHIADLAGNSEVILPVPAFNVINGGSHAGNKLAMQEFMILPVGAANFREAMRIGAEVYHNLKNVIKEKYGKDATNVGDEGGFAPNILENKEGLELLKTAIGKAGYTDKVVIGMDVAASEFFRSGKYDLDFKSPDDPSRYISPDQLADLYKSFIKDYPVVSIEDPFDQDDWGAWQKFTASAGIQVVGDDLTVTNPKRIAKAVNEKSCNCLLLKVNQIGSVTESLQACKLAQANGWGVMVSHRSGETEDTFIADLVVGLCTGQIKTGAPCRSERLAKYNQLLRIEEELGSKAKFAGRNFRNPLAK
Sequence of Gamma-enolase (P09104 whole entry): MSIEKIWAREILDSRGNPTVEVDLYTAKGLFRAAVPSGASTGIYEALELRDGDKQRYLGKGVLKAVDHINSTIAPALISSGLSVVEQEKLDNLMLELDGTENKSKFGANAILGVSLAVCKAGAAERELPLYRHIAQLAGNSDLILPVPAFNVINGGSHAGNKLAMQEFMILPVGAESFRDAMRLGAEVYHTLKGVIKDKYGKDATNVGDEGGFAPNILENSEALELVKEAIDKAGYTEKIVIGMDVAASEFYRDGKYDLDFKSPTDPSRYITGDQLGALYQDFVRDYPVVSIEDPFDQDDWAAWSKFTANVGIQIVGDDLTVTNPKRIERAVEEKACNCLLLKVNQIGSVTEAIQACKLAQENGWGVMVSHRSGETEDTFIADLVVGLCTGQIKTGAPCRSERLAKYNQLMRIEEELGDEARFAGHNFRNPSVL

Row | Compound | IC50 (Alpha-enolase) [nM] | IC50 (Gamma-enolase) [nM]
1 | O=C1[C@@H](P(=O)(O)O)C[C@H](O)N1O [SF2312] | 37.9 | 42.5
2 | O=C(CP(=O)(O)O)NO [phosphonoacetohydroxamate (PhAH)] | 53.2 | 62.3
